Data taken from ChEMBL document CHEMBL1201862, “PubChem BioAssay data set” (2004).
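1) Cells in 96-well plates. 2) Compound, 48 h, 5 concentrations. 3) Linear interpolation between surrounding doses. 4) Unreached endpoint = highest concentration. GI50: concentration for 50% inhibition of growth.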 Calls of active or inactive are those of the source. Rule as the data show it: active = GI50 up to about 1.1 µM and inactive = higher.

Experiments:
Assay in all cases: NCI anticancer screen, dose series, 48 h
UACC-257 = system: UACC-257
HCT-15 = system: HCT-15
Hs-578T = system: Hs-578T
CAKI-1 = system: CAKI-1
NCI-H522 = system: NCI-H522
KM12 = system: KM12
A498 = system: A498
T47D = system: T47D
SK-MEL-5 = system: SK-MEL-5
U-251 = system: U-251
UO-31 = system: UO-31
SNB-19 = system: SNB-19
A549 = system: A549
SK-OV-3 = system: SK-OV-3
SF-295 = system: SF-295
SW-620 = system: SW-620
786-0 = system: 786-0
MDA-MB-231 = system: MDA-MB-231
SF-539 = system: SF-539

SMILES | GI50 (UACC-257) | GI50 (HCT-15) | GI50 (Hs-578T) | GI50 (CAKI-1) | GI50 (NCI-H522) | GI50 (KM12) | GI50 (A498) | GI50 (T47D) | GI50 (SK-MEL-5) | GI50 (U-251) | GI50 (UO-31) | GI50 (SNB-19) | GI50 (A549) | GI50 (SK-OV-3) | GI50 (SF-295) | GI50 (SW-620) | GI50 (786-0) | GI50 (MDA-MB-231) | GI50 (SF-539)
Nc1ncnc2c1ccn2C/C=C/CO | > 100 µM (inactive) | > 100 µM | > 100 µM (inactive) | > 100 µM (inactive) | > 100 µM (inactive) | > 100 µM (inactive) | > 100 µM (inactive) | > 100 µM (inactive) | > 100 µM (inactive) | > 100 µM (inactive) | > 100 µM (inactive) | > 100 µM (inactive) | > 100 µM (inactive) | > 100 µM (inactive) | > 100 µM (inactive) | > 100 µM (inactive) | > 100 µM (inactive) | > 100 µM (inactive) | > 100 µM (inactive)
C=C1OC(c2ccccc2NC)=NC12CCCCC2 | > 100 µM (inactive) | > 100 µM | > 100 µM (inactive) | > 100 µM (inactive) | > 100 µM (inactive) | > 100 µM (inactive) | > 100 µM (inactive) | > 100 µM (inactive) | > 100 µM (inactive) | > 100 µM (inactive) | > 100 µM (inactive) | > 100 µM (inactive) | > 100 µM (inactive) | > 100 µM (inactive) | > 100 µM (inactive) | > 100 µM (inactive) | > 100 µM (inactive) | > 100 µM (inactive) | > 100 µM (inactive)
CC(=N\N=C\c1ccccn1)/C(C)=N/N=C/c1ccccn1 | > 100 µM (inactive) | 60.8 µM | > 100 µM (inactive) | > 100 µM (inactive) | > 100 µM (inactive) | > 100 µM (inactive) | > 100 µM (inactive) | > 100 µM (inactive) | 98.4 µM (inactive) | > 100 µM (inactive) | > 100 µM (inactive) | > 100 µM (inactive) | > 100 µM (inactive) | > 100 µM (inactive) | > 100 µM (inactive) | > 100 µM (inactive) | > 100 µM (inactive) | > 100 µM (inactive) | > 100 µM (inactive)
CC(C)C(OC(=O)c1ccc(NCC2=CC(=O)C=CC2=O)cc1)C(C)C | 7.76 µM (inactive) | 2.97 µM | 3.68 µM (inactive) | 1.4 µM (inactive) | 1.22 µM (inactive) | 11.5 µM (inactive) | 9.12 µM (inactive) | 2.1 µM (inactive) | 10.6 µM (inactive) | 3.32 µM (inactive) | 1.82 µM (inactive) | 18.3 µM (inactive) | 25.2 µM (inactive) | 13.8 µM (inactive) | 13.2 µM (inactive) | 6.76 µM (inactive) | 10.4 µM (inactive) | 7.06 µM (inactive) | 1.99 µM (inactive)
CC[C@@H](/C=C\CCC(=O)C[C@H](O)CCC=C(C)C)O[Si](C(C)C)(C(C)C)C(C)C | 85.1 µM (inactive) | > 100 µM | > 100 µM (inactive) | > 100 µM (inactive) | 48.6 µM (inactive) | > 100 µM (inactive) | > 100 µM (inactive) | 55.5 µM (inactive) | 69 µM (inactive) | > 100 µM (inactive) | > 100 µM (inactive) | > 100 µM (inactive) | 73.3 µM (inactive) | > 100 µM (inactive) | > 100 µM (inactive) | > 100 µM (inactive) | > 100 µM (inactive) | > 100 µM (inactive) | > 100 µM (inactive)
Cc1cccc(/C=N/NC(=S)N2CCCCCC2)n1 | 0.0418 µM (active) | 0.049 µM | 9.59 µM (inactive) | 0.369 µM (active) | < 0.01 µM (active) | 0.23 µM (active) | 0.449 µM (active) | < 0.01 µM (active) | 0.0661 µM (active) | < 0.0417 µM (active) | 0.103 µM (active) | 0.543 µM (active) | 0.111 µM (active) | 0.556 µM (active) | 0.331 µM (active) | 0.0462 µM (active) | 0.0724 µM (active) | < 0.01 µM (active) | 0.205 µM (active)
O=[N+]([O-])c1cc2oc(CSc3ccccc3)nc2cc1Cl | 28.6 µM (inactive) | 19.2 µM | 51.6 µM (inactive) | 29 µM (inactive) | 29.3 µM (inactive) | 32 µM (inactive) | 25.5 µM (inactive) | 24.9 µM (inactive) | 16.6 µM (inactive) | 23.6 µM (inactive) | 35.9 µM (inactive) | 45.1 µM (inactive) | 36.9 µM (inactive) | 29.5 µM (inactive) | 28.2 µM (inactive) | 43.9 µM (inactive) | 34.6 µM (inactive) | 32.2 µM (inactive) | 32.7 µM (inactive)
CN1C/C(=C\c2cccs2)C2=NN(c3ccccc3)C(c3cccs3)C2C1 (configuration not stated) | 5.92 µM (inactive) | 3.78 µM | > 100 µM (inactive) | > 72.9 µM (inactive) | 3.43 µM (inactive) | 4.35 µM (inactive) | > 27.3 µM (inactive) | 76 µM (inactive) | 11.9 µM (inactive) | 12 µM (inactive) | 50 µM (inactive) | 5.93 µM (inactive) | 7.33 µM (inactive) | > 73.3 µM (inactive) | 4.95 µM (inactive) | 4.6 µM (inactive) | 3.49 µM (inactive) | 21.9 µM (inactive) | 17.4 µM (inactive)
